Values joined by “and” are separate entries in the source; they are usually repeats but may differ in a detail not shown here. Equal values may be shown once. Toxic doses and inconclusive results are not listed. Cut-off read from the data, not from the text of the source: active = T/C of 150% or more; inactive = T/C below 125%.
Test system: L1210 leukemia ip in BDF1 mice, survival T/C
Experiment: NCI In Vivo Anticancer Drug Screen. Data for tumor model L1210 Leukemia (intraperitoneal) in B6D2F1 (BDF1) mice
Details: endpoint: mean survival time, higher = longer survival
In short: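 Ratio derived from survival: compound-dosed mice over vehicle-dosed mice, all bearing a transplantable tumor.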

[1] = dose: 12.5 mg/kg/injection, schedule: Q01DX009 (ip), vehicle: saline
[2] = dose: 25.0 mg/kg/injection, schedule: Q01DX009 (ip), vehicle: saline
[3] = dose: 100.0 mg/kg/injection, schedule: Q04DX003 (ip), vehicle: saline
[4] = dose: 200.0 mg/kg/injection, schedule: Q04DX003 (ip), vehicle: saline
[5] = dose: 400.0 mg/kg/injection, schedule: Q04DX003 (ip), vehicle: saline
[6] = dose: 100.0 mg/kg/injection, schedule: Q04DX003 (ip), vehicle: saline with Tween-80
[7] = dose: 200.0 mg/kg/injection, schedule: Q04DX003 (ip), vehicle: saline with Tween-80
[8] = dose: 400.0 mg/kg/injection, schedule: Q04DX003 (ip), vehicle: saline with Tween-80
[9] = dose: 50.0 mg/kg/injection, schedule: Q01DX009 (ip), vehicle: saline
[10] = dose: 100.0 mg/kg/injection, schedule: Q01DX009 (ip), vehicle: saline
[11] = dose: 100.0 mg/kg/injection, schedule: Q01DX001 (ip), vehicle: saline
[12] = dose: 200.0 mg/kg/injection, schedule: Q01DX001 (ip), vehicle: saline
[13] = dose: 400.0 mg/kg/injection, schedule: Q01DX001 (ip), vehicle: saline

Measured: T/C

CCCCCCCCCCCC[N+](C)(C)C.C[As](C)(=O)[O-]
inactive: dose: 6.25 mg/kg/injection, schedule: Q01DX009 (ip), vehicle: saline 101 % of control | [1] 101 % of control | [2] 97 % of control and 101 % of control

CC(=O)C1(O)Cc2c(O)c3c(c(O)c2C(OC2CC(N)C(O)C(C)O2)C1)C(=O)c1ccccc1C3=O (stereo unspecified)
inactive: dose: 0.1 mg/kg/injection, schedule: Q01DX009 (ip), vehicle: saline 119 % of control | dose: 0.8 mg/kg/injection, schedule: Q01DX009 (ip), vehicle: saline 92 % of control

O=C(O)/C=C/c1ccccc1C(=O)O
inactive: [3] 100 % of control | [4] 91 % of control | [5] 103 % of control

CCOCCOCCOCCCNCCCN1CC1
inactive: dose: 88.0 mg/kg/injection, schedule: Q01DX009 (ip), vehicle: saline 117 % of control | dose: 200.0 mg/kg/injection, schedule: Q01DX009 (ip), vehicle: saline 96 % of control | dose: 300.0 mg/kg/injection, schedule: Q01DX001 (ip), vehicle: saline 116 % of control

CC(=O)N(CC(=O)O)c1ccccc1
inactive: [6] 101 % of control | [7] 103 % of control | [8] 98 % of control

CCOC(=O)c1cnc(SC)nc1Nc1ccc([N+](=O)[O-])cc1
inactive: dose: 25.0 mg/kg/injection, schedule: Q01DX001 (ip), vehicle: Klucel (hydroxypropylcellulose) (HPC) 91 % of control | dose: 50.0 mg/kg/injection, schedule: Q01DX001 (ip), vehicle: Klucel (hydroxypropylcellulose) (HPC) 89 % of control | dose: 100.0 mg/kg/injection, schedule: Q01DX001 (ip), vehicle: Klucel (hydroxypropylcellulose) (HPC) 90 % of control

NC(=O)C1=CN(Cc2ccccc2)C=CC1
inactive: [6] 100 % of control | [7] 106 % of control | [8] 94 % of control

CC(=O)C(Cl)C(O)(C(F)(F)F)C(F)(F)F (stereo unspecified)
inactive: [1] 96 % of control | [2] 100 % of control | [9] 110 % of control | [6] 95 % of control | [7] 104 % of control

O=c1cc[nH]c2cc(Cl)ccc12
inactive: [9] 102 % of control | [10] 97 % of control

Cn1cnc([N+](=O)[O-])c1SC#N
inactive: dose: 15.0 mg/kg/injection, schedule: Q01DX001 (ip), vehicle: carboxymethylcellulose (CMC) 100 % of control

NNC(=O)c1ccncc1
inactive: [1] 98 % of control | dose: 19.25 mg/kg/injection, schedule: Q01DX Z (ip), vehicle: carboxymethylcellulose (CMC) 103 % of control | [2] 107 % of control | dose: 25.0 mg/kg/injection, schedule: Q04DX003 (ip), vehicle: saline 108 % of control | dose: 38.5 mg/kg/injection, schedule: Q01DX Z (ip), vehicle: carboxymethylcellulose (CMC) 93 % of control | [9] 104 % of control | dose: 50.0 mg/kg/injection, schedule: Q04DX003 (ip), vehicle: saline 101 % of control | dose: 77.0 mg/kg/injection, schedule: Q01DX Z (ip), vehicle: carboxymethylcellulose (CMC) 106 % of control | [11] 98 % of control | [10] 100 % of control | [3] 101 % of control | dose: 154.0 mg/kg/injection, schedule: Q01DX Z (ip), vehicle: carboxymethylcellulose (CMC) 108 % of control | [4] 86 % of control

COc1ccc(OC)c(C2(O)C=C(C)C(=O)C=C2C)c1 (stereo unspecified)
inactive: dose: 150.0 mg/kg/injection, schedule: Q01DX001 (ip), vehicle: Klucel (hydroxypropylcellulose) (HPC) 91 % of control | dose: 300.0 mg/kg/injection, schedule: Q01DX001 (ip), vehicle: Klucel (hydroxypropylcellulose) (HPC) 91 % of control

CC1(C)OC2/C(=N/O)C3COC(O3)C2O1 (stereo unspecified)
inactive: [11] 101 % of control | [12] 95 % of control | [13] 106 % of control

c1ccc(Cn2ccnn2)cc1
inactive: dose: 50.0 mg/kg/injection, schedule: Q01DX009 (ip), vehicle: Klucel (hydroxypropylcellulose) (HPC) 96 % of control | dose: 100.0 mg/kg/injection, schedule: Q01DX009 (ip), vehicle: Klucel (hydroxypropylcellulose) (HPC) 92 % of control | dose: 200.0 mg/kg/injection, schedule: Q01DX009 (ip), vehicle: Klucel (hydroxypropylcellulose) (HPC) 115 % of control

COC(=O)CC(c1ccc2c(c1)OCO2)N1CCOCC1 (stereo unspecified)
inactive: [11] 119 % of control | [12] 113 % of control | [13] 104 % of control

CC(=O)C1=CC(=O)c2ccccc2C1=O
inactive: dose: 20.0 mg/kg/injection, schedule: Q01DX001 (ip), vehicle: water 103 % of control | dose: 40.0 mg/kg/injection, schedule: Q01DX001 (ip), vehicle: water 95 % of control | dose: 80.0 mg/kg/injection, schedule: Q01DX001 (ip), vehicle: water 93 % of control

CN(C)[C@@H]1C(=O)C(C(N)=O)=C(O)[C@@]2(O)C(=O)C3=C(O)c4c(O)cccc4C[C@H]3C[C@@H]12
inactive: dose: 12.5 mg/kg/injection, schedule: Q01DX001 (ip), vehicle: other 94 % of control | dose: 12.5 mg/kg/injection, schedule: Q04DX003 (ip), vehicle: Klucel (hydroxypropylcellulose) (HPC) 98 % of control | dose: 18.75 mg/kg/injection, schedule: Q01DX009 (ip), vehicle: other 111 % of control | dose: 25.0 mg/kg/injection, schedule: Q01DX001 (ip), vehicle: other 96 % of control | dose: 25.0 mg/kg/injection, schedule: Q04DX003 (ip), vehicle: Klucel (hydroxypropylcellulose) (HPC) 104 % of control | dose: 37.5 mg/kg/injection, schedule: Q01DX009 (ip), vehicle: other 117 % of control | dose: 50.0 mg/kg/injection, schedule: Q01DX001 (ip), vehicle: other 100 % of control | dose: 50.0 mg/kg/injection, schedule: Q04DX003 (ip), vehicle: Klucel (hydroxypropylcellulose) (HPC) 107 % of control | dose: 75.0 mg/kg/injection, schedule: Q04DX003 (ip), vehicle: other 107 % of control | [11] 112 % of control

Nc1ncc(N)c(N)n1
active: dose: 360.0 mg/kg/injection, schedule: Q01DX Z (ip), vehicle: carboxymethylcellulose (CMC) 159 % of control | dose: 500.0 mg/kg/injection, schedule: Q01DX Z (ip), vehicle: carboxymethylcellulose (CMC) 160 % of control
inactive: dose: 21.0 mg/kg/injection, schedule: Q01DX Z (ip), vehicle: saline 101 % of control | dose: 25.0 mg/kg/injection, schedule: Q01DX Z (ip), vehicle: carboxymethylcellulose (CMC) 109 % of control | dose: 31.0 mg/kg/injection, schedule: Q01DX Z (ip), vehicle: saline 106 % of control | dose: 47.0 mg/kg/injection, schedule: Q01DX Z (ip), vehicle: saline 121 % of control | dose: 50.0 mg/kg/injection, schedule: Q01DX001 (ip), vehicle: saline 106 % of control | [11] 103 % of control | [3] 112 % of control | dose: 117.0 mg/kg/injection, schedule: Q01DX009 (ip), vehicle: saline with Tween-80 116 % of control | dose: 125.0 mg/kg/injection, schedule: Q01DX001 (ip), vehicle: carboxymethylcellulose (CMC) 101 % of control and 118 % of control | dose: 125.0 mg/kg/injection, schedule: Q## X001 (ip), vehicle: carboxymethylcellulose (CMC) 110 % of control | [12] 103 % of control | [4] 117 % of control | dose: 240.0 mg/kg/injection, schedule: Q04DX003 (ip), vehicle: saline 111 % of control | dose: 250.0 mg/kg/injection, schedule: Q01DX001 (ip), vehicle: carboxymethylcellulose (CMC) 102 % of control and 108 % of control | dose: 250.0 mg/kg/injection, schedule: Q## X001 (ip), vehicle: carboxymethylcellulose (CMC) 111 % of control | dose: 360.0 mg/kg/injection, schedule: Q04DX003 (ip), vehicle: saline 108 % of control | [13] 97 % of control | [5] 118 % of control | dose: 500.0 mg/kg/injection, schedule: Q01DX001 (ip), vehicle: carboxymethylcellulose (CMC) 98 % of control and 117 % of control | dose: 500.0 mg/kg/injection, schedule: Q## X001 (ip), vehicle: carboxymethylcellulose (CMC) 105 % of control | dose: 810.0 mg/kg/injection, schedule: Q01DX Z (ip), vehicle: saline 86 % of control | dose: 1000.0 mg/kg/injection, schedule: Q01DX001 (ip), vehicle: carboxymethylcellulose (CMC) 102 % of control and 112 % of control | dose: 1000.0 mg/kg/injection, schedule: Q## X001 (ip), vehicle: carboxymethylcellulose (CMC) 98 % of control

CCC(N)c1ccc2c3c(cccc13)CC2 (stereo unspecified)
inactive: dose: 100.0 mg/kg/injection, schedule: Q01DX009 (ip), vehicle: saline with Tween-80 88 % of control | [6] 93 % of control | dose: 200.0 mg/kg/injection, schedule: Q01DX009 (ip), vehicle: saline with Tween-80 90 % of control | [7] 90 % of control | dose: 400.0 mg/kg/injection, schedule: Q01DX009 (ip), vehicle: saline with Tween-80 93 % of control | [8] 90 % of control
